The source of these data is publication PMC7594840, “Identification of histone deacetylase inhibitors with (arylidene)aminoxy scaffold active in uveal melanoma cell lines” (Journal of Enzyme Inhibition and Medicinal Chemistry, 2020).

This test concerns the target T1, HDAC6 (Homo sapiens, UniProt Q9UBN7).
T1 construct: purchased BPS Bioscience
T1 sequence (Q9UBN7 1-1215): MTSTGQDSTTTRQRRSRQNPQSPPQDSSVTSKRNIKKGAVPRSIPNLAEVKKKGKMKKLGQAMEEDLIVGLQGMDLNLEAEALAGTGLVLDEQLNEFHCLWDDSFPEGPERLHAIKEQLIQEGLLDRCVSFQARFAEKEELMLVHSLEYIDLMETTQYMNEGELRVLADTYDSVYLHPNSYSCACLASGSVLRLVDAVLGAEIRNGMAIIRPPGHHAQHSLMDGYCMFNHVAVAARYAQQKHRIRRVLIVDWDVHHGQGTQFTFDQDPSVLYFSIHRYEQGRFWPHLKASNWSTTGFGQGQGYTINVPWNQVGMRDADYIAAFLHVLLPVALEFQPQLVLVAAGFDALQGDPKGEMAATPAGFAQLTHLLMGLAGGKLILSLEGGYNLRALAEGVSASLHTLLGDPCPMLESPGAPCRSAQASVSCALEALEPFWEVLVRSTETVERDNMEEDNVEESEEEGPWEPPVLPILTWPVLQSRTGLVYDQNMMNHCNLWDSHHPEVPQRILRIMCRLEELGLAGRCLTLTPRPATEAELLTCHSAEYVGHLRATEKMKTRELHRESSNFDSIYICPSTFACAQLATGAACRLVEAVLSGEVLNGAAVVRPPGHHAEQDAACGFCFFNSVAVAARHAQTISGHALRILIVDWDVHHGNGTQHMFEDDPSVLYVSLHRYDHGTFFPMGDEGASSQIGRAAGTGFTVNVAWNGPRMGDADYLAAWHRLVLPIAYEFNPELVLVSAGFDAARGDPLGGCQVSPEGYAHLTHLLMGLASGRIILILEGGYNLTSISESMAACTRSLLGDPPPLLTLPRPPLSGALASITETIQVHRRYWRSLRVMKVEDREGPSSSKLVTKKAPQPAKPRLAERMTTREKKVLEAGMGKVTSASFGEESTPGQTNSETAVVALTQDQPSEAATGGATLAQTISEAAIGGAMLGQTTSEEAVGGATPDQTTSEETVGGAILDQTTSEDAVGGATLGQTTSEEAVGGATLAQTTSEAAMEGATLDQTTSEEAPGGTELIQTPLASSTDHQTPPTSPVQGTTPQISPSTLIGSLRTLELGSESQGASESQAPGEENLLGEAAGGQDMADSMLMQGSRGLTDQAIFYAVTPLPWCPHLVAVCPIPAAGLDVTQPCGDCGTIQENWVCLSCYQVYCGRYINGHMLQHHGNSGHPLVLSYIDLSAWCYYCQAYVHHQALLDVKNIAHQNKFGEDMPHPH
Put plainly: Microfluidic chip-based HDAC inhibition assay (Calliper off-chip mobility shift), HDAC6. Type of test: biochemical.

The structures appear in SMILES notation.

Excerpt: Test compounds were screened against human histone deacetylases (HDACs) 1, 3, 6, and 8 using the Calliper off-chip mobility shift assay technology. All HDACs were purchased from BPS Bioscience and four selective substrates were used according to the targeted isozyme. […] Buffers components, except for CR-3 (LabChip Coating Reagent 3, purchased from PerkinElmer, Product Number 760050) and Panobinostat (LBH589, purchased from ApexBio Technology)[35]^,[36] were purchased from Sigma Aldrich. […] (all purchased from Selleck Chemicals).

Consider `O=C(CCCCO/N=C/c1cnc2ccccc2c1)NO` [Compound 2f, (E)-N-hydroxy-5-(((quinolin-3-ylmethylene)amino)oxy)pentanamide], for which the IC50 is 0.01 µM. Also, the “times less active than SAHA on HDAC6” value (compared with SAHA) is 7 times.
